Earlier results, collected in patent US20160081975A1, “SOFT GEL COMPOSITIONS AND PRE-GEL CONCENTRATES” (VIRUN, INC., priority 2014, published 2016).

Settings: reported value

| Substance | HLB value |
| --- | --- |
| sucrose dipalmitate | 7.4 |
| sucrose distearate | 3 |
| sucrose monopalmitate | > 10 |
